Columns and labels:
Assay type in all cases: cell-based
TYK2 [1] = biological target: T1, TYK2 (Homo sapiens, UniProt P29597); experiment: TYK2 degradation MSD assay in human PBMC cells; parameters: endogenous in cells; host or cells: human PBMC; settings: 4 to 24 hours incubation, read-out: TYK2 MSD DC50 rating in human PBMC
Summary of the method: (§1)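 Cells (0.4 million per well) were treated with a 9-point, 1:3 compound series from a top concentration of 1 to 10 μM for 4 to 24 hours at 37° C, then lysed in RIPA with protease/phosphatase inhibitors. Remaining TYK2 was quantified by sandwich MSD immunoassay; DC50 came from four-parameter nonlinear fits.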

TYK2 [2] = biological target: T1, TYK2; experiment: TYK2 degradation MSD assay in EBV-B cells; parameters: endogenous in cells; host or cells: EBV-B cells; settings: 4 to 24 hours incubation, read-out: TYK2 MSD DC50 rating in EBV-B
Summary of the method: as §1

TYK2 [3] = biological target: T1, TYK2; experiment: TYK2 degradation MSD assay in OCI-LY10 cells; parameters: endogenous in cells; host or cells: EBV-B cells; settings: 4 to 24 hours incubation, read-out: TYK2 MSD DC50 rating in OCI-LY10
Summary of the method: as §1

T1 sequence (P29597 whole entry): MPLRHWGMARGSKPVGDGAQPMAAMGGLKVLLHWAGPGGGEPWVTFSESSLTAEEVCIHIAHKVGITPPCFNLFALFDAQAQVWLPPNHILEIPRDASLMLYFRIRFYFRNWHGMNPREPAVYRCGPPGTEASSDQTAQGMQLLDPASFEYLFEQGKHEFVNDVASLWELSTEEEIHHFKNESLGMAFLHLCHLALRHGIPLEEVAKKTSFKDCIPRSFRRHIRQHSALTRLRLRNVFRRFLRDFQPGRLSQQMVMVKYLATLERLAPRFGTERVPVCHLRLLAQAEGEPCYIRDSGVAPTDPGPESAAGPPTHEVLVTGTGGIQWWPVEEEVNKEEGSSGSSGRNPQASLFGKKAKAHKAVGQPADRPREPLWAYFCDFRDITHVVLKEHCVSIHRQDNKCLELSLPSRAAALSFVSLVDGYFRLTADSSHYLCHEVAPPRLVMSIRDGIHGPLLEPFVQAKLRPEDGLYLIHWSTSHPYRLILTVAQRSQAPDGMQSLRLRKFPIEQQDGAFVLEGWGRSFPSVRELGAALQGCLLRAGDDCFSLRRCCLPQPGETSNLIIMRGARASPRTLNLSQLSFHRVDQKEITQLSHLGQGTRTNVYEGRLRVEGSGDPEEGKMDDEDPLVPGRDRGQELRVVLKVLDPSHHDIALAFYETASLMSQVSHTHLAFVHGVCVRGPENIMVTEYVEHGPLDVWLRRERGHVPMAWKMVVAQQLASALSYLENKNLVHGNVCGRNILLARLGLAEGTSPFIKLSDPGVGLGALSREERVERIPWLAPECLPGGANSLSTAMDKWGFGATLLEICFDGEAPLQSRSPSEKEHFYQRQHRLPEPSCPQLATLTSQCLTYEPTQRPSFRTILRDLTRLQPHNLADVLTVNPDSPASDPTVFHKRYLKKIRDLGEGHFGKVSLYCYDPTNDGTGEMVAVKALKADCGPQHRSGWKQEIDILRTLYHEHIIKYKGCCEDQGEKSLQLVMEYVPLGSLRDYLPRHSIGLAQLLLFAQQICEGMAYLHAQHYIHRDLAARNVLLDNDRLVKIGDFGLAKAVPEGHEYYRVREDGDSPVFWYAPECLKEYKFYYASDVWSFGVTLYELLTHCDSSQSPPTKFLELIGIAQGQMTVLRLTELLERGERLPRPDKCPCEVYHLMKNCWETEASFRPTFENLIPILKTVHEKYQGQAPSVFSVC

DC50 (TYK2 [1]) | DC50 (TYK2 [2]) | DC50 (TYK2 [3]) | Structure (SMILES)
1 to 10 nM | > 100 nM | > 100 nM | CNc1cc(Nc2cccn(-c3ccc(C(=O)NCCOCCOCCc4ccc5c(c4)n(C)c(=O)n5C4CCC(=O)NC4=O)cn3)c2=O)nn2c(C(=O)N[C@@H]3C[C@@H]3F)cnc12 (stereo partly drawn) [Example K262]
1 to 10 nM | > 100 nM | > 100 nM | CNc1cc(Nc2cccn(-c3ccc(C(=O)NCCOCCOCCOCCOCCc4ccc5c(c4)n(C)c(=O)n5C4CCC(=O)NC4=O)cn3)c2=O)nn2c(C(=O)N[C@@H]3C[C@@H]3F)cnc12 (stereo partly drawn) [Example K263]
> 100 nM | > 100 nM | > 100 nM | CNc1cc(Nc2cccn(-c3ccc(C(=O)NCCCCc4ccc5c(c4)n(C)c(=O)n5C4CCC(=O)NC4=O)cn3)c2=O)nn2c(C(=O)N[C@@H]3C[C@@H]3F)cnc12 (stereo partly drawn) [Example K264]
< 1 nM | > 100 nM | > 100 nM | CNc1cc(Nc2cccn(-c3ccc(C(=O)NCCCCCCCc4cccc5c4n(C)c(=O)n5C4CCC(=O)NC4=O)cn3)c2=O)nn2c(C(=O)N[C@@H]3C[C@@H]3F)cnc12 (stereo partly drawn) [Example K265]
< 1 nM | > 100 nM | > 100 nM | CNc1cc(Nc2cccn(-c3ccc(C(=O)NCCCCCCCCCc4cccc5c4n(C)c(=O)n5C4CCC(=O)NC4=O)cn3)c2=O)nn2c(C(=O)N[C@@H]3C[C@@H]3F)cnc12 (stereo partly drawn) [Example K266]
> 100 nM | > 100 nM | > 100 nM | CNc1cc(Nc2cccn(C3CCN(C(=O)COCCOCCc4ccc5c(c4)n(C)c(=O)n5C4CCC(=O)NC4=O)CC3)c2=O)nn2c(C(=O)N[C@@H]3C[C@@H]3F)cnc12 (stereo partly drawn) [Example K275]
10 to 100 nM | > 100 nM | > 100 nM | CNc1cc(Nc2cccn(C3CCN(C(=O)COCCOCCOCCOCCc4ccc5c(c4)n(C)c(=O)n5C4CCC(=O)NC4=O)CC3)c2=O)nn2c(C(=O)N[C@@H]3C[C@@H]3F)cnc12 (stereo partly drawn) [Example K276]
1 to 10 nM | > 100 nM | > 100 nM | CNc1cc(Nc2cccn(C3CCN(C(=O)NCCCCc4ccc5c(c4)n(C)c(=O)n5C4CCC(=O)NC4=O)CC3)c2=O)nn2c(C(=O)N[C@@H]3C[C@@H]3F)cnc12 (stereo partly drawn) [Example K277]
1 to 10 nM | > 100 nM | > 100 nM | CNc1cc(Nc2cccn(C3CCN(C(=O)NCCCCc4cccc5c4n(C)c(=O)n5C4CCC(=O)NC4=O)CC3)c2=O)nn2c(C(=O)N[C@@H]3C[C@@H]3F)cnc12 (stereo partly drawn) [Example K278]
< 1 nM | > 100 nM | > 100 nM | CNc1cc(Nc2cccn(-c3ccc(C(=O)N(C)C4CCN(Cc5cccc6c5n(C)c(=O)n6C5CCC(=O)NC5=O)CC4)cn3)c2=O)nn2c(C(=O)N[C@@H]3C[C@@H]3F)cnc12 (stereo partly drawn) [Example K279]
< 1 nM | < 1 nM | > 100 nM | CNc1cc(Nc2cccn(-c3ccc(C(=O)N(C)CC4CCN(c5ccc6c(c5)n(C)c(=O)n6C5CCC(=O)NC5=O)CC4)cn3)c2=O)nn2c(C(=O)N[C@@H]3C[C@@H]3F)cnc12 (stereo partly drawn) [Example K280]
< 1 nM | < 1 nM | > 100 nM | CNc1cc(Nc2cccn(-c3ccc(C(=O)N(C)CC4CCN(Cc5cccc6c5n(C)c(=O)n6C5CCC(=O)NC5=O)CC4)cn3)c2=O)nn2c(C(=O)N[C@@H]3C[C@@H]3F)cnc12 (stereo partly drawn) [Example K281]
> 100 nM | > 100 nM | > 100 nM | CNc1cc(-c2cnn(C3CCN(C(=O)NCCCCc4ccc5c(c4)n(C)c(=O)n5C4CCC(=O)NC4=O)CC3)c2)nn2c(C(=O)N[C@@H]3C[C@@H]3F)cnc12 (stereo partly drawn) [Example K294]
> 100 nM | > 100 nM | > 100 nM | CNc1cc(-c2cnn(C3CCN(C(=O)NCCCCc4cccc5c4n(C)c(=O)n5C4CCC(=O)NC4=O)CC3)c2)nn2c(C(=O)N[C@@H]3C[C@@H]3F)cnc12 (stereo partly drawn) [Example K295]
< 1 nM | > 100 nM | > 100 nM | CNc1cc(-c2cnn(C3CCN(C(=O)NCCCCCCCCc4ccc5c(c4)n(C)c(=O)n5C4CCC(=O)NC4=O)CC3)c2)nn2c(C(=O)N[C@@H]3C[C@@H]3F)cnc12 (stereo partly drawn) [Example K296]
> 100 nM | > 100 nM | > 100 nM | CNc1cc(-c2ccc(C(=O)NCCCCCCc3ccc4c(c3)n(C)c(=O)n4C3CCC(=O)NC3=O)cc2)nn2c(C(=O)N[C@@H]3C[C@@H]3F)cnc12 (stereo partly drawn) [Example K298]
> 100 nM | > 100 nM | > 100 nM | CNc1cc(-c2ccc(C(=O)NCCCCc3cccc4c3n(C)c(=O)n4C3CCC(=O)NC3=O)cc2)nn2c(C(=O)N[C@@H]3C[C@@H]3F)cnc12 (stereo partly drawn) [Example K299]
> 100 nM | > 100 nM | > 100 nM | CNc1cc(-c2ccc(C(=O)NCCCCCCc3cccc4c3n(C)c(=O)n4C3CCC(=O)NC3=O)cc2)nn2c(C(=O)N[C@@H]3C[C@@H]3F)cnc12 (stereo partly drawn) [Example K300]
> 100 nM | > 100 nM | > 100 nM | CNc1cc(-c2ccc(C(=O)NCCCCCCCCc3ccc4c(c3)n(C)c(=O)n4C3CCC(=O)NC3=O)cc2)nn2c(C(=O)N[C@@H]3C[C@@H]3F)cnc12 (stereo partly drawn) [Example K301]

DC50 (TYK2 [1]) | DC50 (TYK2 [2]) | DC50 (TYK2 [3]) | Structure (SMILES)
> 100 nM | > 100 nM | > 100 nM | CNc1cc(C2CCN(C(=O)CCCCCCCc3ccc4c(c3)n(C)c(=O)n4C3CCC(=O)NC3=O)CC2)nn2c(C(=O)N[C@@H]3C[C@@H]3F)cnc12 (stereo partly drawn) [Example K302]
> 100 nM | > 100 nM | > 100 nM | CNc1cc(-c2ccc(C(=O)NCCCCCCCCc3cccc4c3n(C)c(=O)n4C3CCC(=O)NC3=O)cc2)nn2c(C(=O)N[C@@H]3C[C@@H]3F)cnc12 (stereo partly drawn) [Example K303]
> 100 nM | > 100 nM | > 100 nM | CNc1cc(C2CCCN(C(=O)CCCCCCCc3ccc4c(c3)n(C)c(=O)n4C3CCC(=O)NC3=O)C2)nn2c(C(=O)N[C@@H]3C[C@@H]3F)cnc12 (stereo partly drawn) [Example K304]
> 100 nM | > 100 nM | > 100 nM | CNc1cc(-c2cccc(C(=O)NCCCCc3cccc4c3n(C)c(=O)n4C3CCC(=O)NC3=O)c2)nn2c(C(=O)N[C@@H]3C[C@@H]3F)cnc12 (stereo partly drawn) [Example K305]
> 100 nM | > 100 nM | > 100 nM | CNc1cc(-c2cccc(C(=O)NCCCCCCc3ccc4c(c3)n(C)c(=O)n4C3CCC(=O)NC3=O)c2)nn2c(C(=O)N[C@@H]3C[C@@H]3F)cnc12 (stereo partly drawn) [Example K306]
> 100 nM | > 100 nM | > 100 nM | CNc1cc(-c2cccc(C(=O)NCCCCc3ccc4c(c3)n(C)c(=O)n4C3CCC(=O)NC3=O)c2)nn2c(C(=O)N[C@@H]3C[C@@H]3F)cnc12 (stereo partly drawn) [Example K307]
> 100 nM | > 100 nM | > 100 nM | CNc1cc(-c2cccc(C(=O)NCCCCCCc3cccc4c3n(C)c(=O)n4C3CCC(=O)NC3=O)c2)nn2c(C(=O)N[C@@H]3C[C@@H]3F)cnc12 (stereo partly drawn) [Example K308]
> 100 nM | > 100 nM | > 100 nM | CNc1cc(-c2cccc(C(=O)NCCCCCCCCc3ccc4c(c3)n(C)c(=O)n4C3CCC(=O)NC3=O)c2)nn2c(C(=O)NC3C[C@@H]3F)cnc12 (stereo partly drawn) [Example K309]
> 100 nM | > 100 nM | > 100 nM | CNc1cc(-c2cccc(C(=O)NCCCCCCCCc3cccc4c3n(C)c(=O)n4C3CCC(=O)NC3=O)c2)nn2c(C(=O)N[C@@H]3C[C@@H]3F)cnc12 (stereo partly drawn) [Example K310]
> 100 nM | > 100 nM | > 100 nM | CNc1cc(-c2cnn(C3CCN(C(=O)NCCCCCCc4ccc5c(c4)n(C)c(=O)n5C4CCC(=O)NC4=O)CC3)c2)nn2c(C(=O)N[C@@H]3C[C@@H]3F)cnc12 (stereo partly drawn) [Example K311]
> 100 nM | > 100 nM | > 100 nM | CNc1cc(-c2cnn(C3CCN(C(=O)NCCCCCCc4cccc5c4n(C)c(=O)n5C4CCC(=O)NC4=O)CC3)c2)nn2c(C(=O)N[C@@H]3C[C@@H]3F)cnc12 (stereo partly drawn) [Example K312]
1 to 10 nM | > 100 nM | > 100 nM | CNc1cc(-c2cnn(C3CCN(C(=O)NCCCCCCCCc4cccc5c4n(C)c(=O)n5C4CCC(=O)NC4=O)CC3)c2)nn2c(C(=O)N[C@@H]3C[C@@H]3F)cnc12 (stereo partly drawn) [Example K313]
> 100 nM | > 100 nM | > 100 nM | CNc1cc(-c2cnn(C3CN(C(=O)NCCCCc4ccc5c(c4)n(C)c(=O)n5C4CCC(=O)NC4=O)C3)c2)nn2c(C(=O)N[C@@H]3C[C@@H]3F)cnc12 (stereo partly drawn) [Example K314]
> 100 nM | > 100 nM | > 100 nM | CNc1cc(-c2cnn(C3CN(C(=O)NCCCCCCc4ccc5c(c4)n(C)c(=O)n5C4CCC(=O)NC4=O)C3)c2)nn2c(C(=O)N[C@@H]3C[C@@H]3F)cnc12 (stereo partly drawn) [Example K315]
> 100 nM | > 100 nM | > 100 nM | CNc1cc(-c2cnn(C3CN(C(=O)NCCCCc4cccc5c4n(C)c(=O)n5C4CCC(=O)NC4=O)C3)c2)nn2c(C(=O)N[C@@H]3C[C@@H]3F)cnc12 (stereo partly drawn) [Example K316]
> 100 nM | > 100 nM | > 100 nM | CNc1cc(-c2cnn(C3CN(C(=O)NCCCCCCc4cccc5c4n(C)c(=O)n5C4CCC(=O)NC4=O)C3)c2)nn2c(C(=O)N[C@@H]3C[C@@H]3F)cnc12 (stereo partly drawn) [Example K317]
> 100 nM | > 100 nM | > 100 nM | CNc1cc(-c2cnn(C3CN(C(=O)NCCCCCCCCc4ccc5c(c4)n(C)c(=O)n5C4CCC(=O)NC4=O)C3)c2)nn2c(C(=O)NC3C[C@@H]3F)cnc12 (stereo partly drawn) [Example K318]
> 100 nM | > 100 nM | > 100 nM | CNc1cc(-c2cnn(C3CN(C(=O)NCCCCCCCCc4cccc5c4n(C)c(=O)n5C4CCC(=O)NC4=O)C3)c2)nn2c(C(=O)N[C@@H]3C[C@@H]3F)cnc12 (stereo partly drawn) [Example K319]

Source: patent US20250051338A1, “TYK2 DEGRADERS AND USES THEREOF” (Kymera Therapeutics, Inc., priority 2021, published 2025)
